Laboratory results as given in ChEMBL document CHEMBL4513161, “CO-ADD screening of MMV (CH) - Pandemic Response Box” (2021).
Values after ≈ are worked out from the molar mass of the structure shown. Counter-ions that a name gives are not always drawn.

Assays:
Staphylococcus aureus = assay: microbe, parasite or virus in culture; settings: ATCC 43300, 18 h, ASSAY_TEST Inhibition of Bacterial Growth, detection method Absorption (OD600), MEDIA CAMHB, plate type 384well, NBS, CORNING #3640
Description: Antibacterial activity against Staphylococcus aureus MRSA ATCC 43300 (CO-ADD:GP_020); MIC in CAMBH media, using NBS plates, by OD(600)

Escherichia coli = assay: microbe, parasite or virus in culture; settings: ATCC 25922, 18 h, ASSAY_TEST Inhibition of Bacterial Growth, detection method Absorption (OD600), MEDIA CAMHB, plate type 384well, NBS, CORNING #3640
Description: Antibacterial activity against Escherichia coli ATCC 25922 (CO-ADD:GN_001); MIC in CAMBH media using NBS plates, by OD(600)

Candida albicans = assay: microbe, parasite or virus in culture; settings: ATCC 90028, ASSAY_TEST Inhibition of Fungal Growth, detection method Absorption (OD530), plate type 384well, NBS, CORNING #3640
Description: Antifungal activity against Candida albicans ATCC 90028 (CO-ADD:FG_001); MIC in YNB media using NBS plates, by OD630

Pseudomonas aeruginosa [1] = assay: Antibacterial activity against Pseudomonas aeruginosa PAO397 [PAO1 d(mexAB-oprM) d(mexCD-oprJ) d(mexEF-oprN) d(mexJKL) d(mexXY) d(opmH)] (CO-ADD:GN_211); MIC in CAMBH media using NBS plates, by OD(600); type: functional; settings: ASSAY_TEST Inhibition of Bacterial Growth, detection method Absorption (OD600), MEDIA CAMHB, plate type 384well, CORNING #3640, time 18 hr
Acinetobacter baumannii = assay: microbe, parasite or virus in culture; settings: ATCC 19606, 18 h, ASSAY_TEST Inhibition of Bacterial Growth, detection method Absorption (OD600), MEDIA CAMHB, plate type 384well, NBS, CORNING #3640
Description: Antibacterial activity against Acinetobacter baumannii ATCC 19606 (CO-ADD:GN_034); MIC in CAMBH media using NBS plates, by OD600

Pseudomonas aeruginosa [2] = assay: microbe, parasite or virus in culture; settings: ATCC 27853, 18 h, ASSAY_TEST Inhibition of Bacterial Growth, detection method Absorption (OD600), MEDIA CAMHB, plate type 384well, NBS, CORNING #3640
Description: Antibacterial activity against Pseudomonas aeruginosa ATCC 27853 (CO-ADD:GN_042); MIC in CAMBH media using NBS plates, by OD(600)

Klebsiella pneumoniae = assay: microbe, parasite or virus in culture; settings: ATCC 700603, 18 h, ASSAY_TEST Inhibition of Bacterial Growth, detection method Absorption (OD600), MEDIA CAMHB, plate type 384well, NBS, CORNING #3640
Description: Antibacterial activity against Klebsiella pneumoniae MDR ATCC 70063 (CO-ADD:GN_003); MIC in CAMBH media using NBS plates, by OD(600)

HEK293 = assay: cells; type: functional, Homo sapiens, ATCC CRL1573; settings: Homo sapiens, ATCC CRL1573, HEK293; ASSAY_TEST Inhibition of Cell Viability; detection method Resazurin; Fluorescence (ex560/em590); MEDIA DMEM with 10% FBS; plate type 384well; TC; CORNING #3712; time 18 hr; read-out: CC50

Description for Cryptococcus neoformans: Antifungal activity against Cryptococcus neoformans H99 ATCC 208821 (CO-ADD:FG_002); MIC in YNB media using NBS plates, by Resazurin OD(600-570)

Row | SMILES | MIC (Staphylococcus aureus) [µM] | MIC (Cryptococcus neoformans) [µM] | MIC (Escherichia coli) [µM] | MIC (Candida albicans) [µM] | MIC (Pseudomonas aeruginosa [1]) [µM] | MIC (Acinetobacter baumannii) [µM] | MIC (Pseudomonas aeruginosa [2]) [µM] | MIC (Klebsiella pneumoniae) [µM] | CC50 (HEK293) [µM]
1 | Cc1ccccc1NC(=O)Nc1cccc([N+](=O)[O-])c1 | > 20 | > 20 | > 20 | > 20 | > 20 | > 20 | > 20 | > 20 | > 20
2 | CC1(C)CC(NC(=O)C(=O)Nc2ccc(Cl)cc2)CC(C)(C)N1 | > 20 | > 20 | > 20 | > 20 | > 20 | > 20 | > 20 | > 20 | > 20
3 | Cc1cc(-c2ccccc2)c(C(=O)C(=O)Nc2ccc(N3CCN(c4ncc(F)cn4)CC3)cc2)n1C [OLOROFIM] | > 20 | > 20 | > 20 | > 20 | > 20 | > 20 | > 20 | > 20 | > 20
4 | c1ccc(Cn2c(-c3ccccn3)nc3ccccc32)cc1 | > 20 | > 20 | > 20 | > 20 | > 20 | > 20 | > 20 | > 20 | > 20
5 | O=c1oc2ccc(Br)cc2cc1CSc1ncc[nH]1 | > 20 | > 20 | > 20 | > 20 | > 20 | > 20 | > 20 | > 20 | > 20
6 | COc1ccc(C(C)(C)C)cc1NC(=O)C(=O)c1ccc(OCCN2CCOCC2)c2ccccc12 | > 20 | > 20 | > 20 | > 20 | > 20 | > 20 | > 20 | > 20 | > 20
7 | NC1(C(=O)O)CCP(=O)(O)CC1 (configuration not stated) | > 20 | > 20 | > 20 | > 20 | > 20 | > 20 | > 20 | > 20 | > 20
8 | Nc1nc2c(ncn2COC(CO)CO)c(=O)[nH]1 [GANCICLOVIR] | > 20 | > 20 | > 20 | > 20 | > 20 | > 20 | > 20 | > 20 | > 20
9 | C[C@@]1(O)[C@H](O)[C@@H](CO)O[C@H]1n1ccc2c(N)ncnc21 [BETA-2'-C-METHYL-7-DEAZA-ADENOSINE] | > 20 | > 20 | > 20 | > 20 | > 20 | > 20 | > 20 | > 20 | > 20
10 | CC(=O)N1c2ccccc2NC2=C(C(=O)CC(C)(C)C2)C1c1ccc(OCc2ccccc2)cc1 (configuration not stated) | > 20 | > 20 | > 20 | > 20 | > 20 | > 20 | > 20 | > 20 | > 20
11 | c1cnc(NCc2ccc(CNc3ncccn3)cc2)nc1 [MSX-122] | > 20 | > 20 | > 20 | > 20 | > 20 | > 20 | > 20 | > 20 | > 20
12 | NC1C2CC3CC(C2)CC1C3 (configuration not stated) | > 20 | > 20 | > 20 | > 20 | > 20 | > 20 | > 20 | > 20 | > 20
13 | N[C@@H]1CN(c2c(F)cc3c(=O)c(C(=O)O)cn([C@@H]4C[C@@H]4F)c3c2Cl)CC12CC2 [SITAFLOXACIN ANHYDROUS] | 0.312 (≈ 0.128 µg/mL) | > 20 | ≤ 0.156 | > 20 | ≤ 0.156 | 5 (≈ 2.05 µg/mL) | 2.5 (≈ 1.02 µg/mL) | 5 (≈ 2.05 µg/mL) | > 20
14 | Oc1c(C(Nc2nc3ccccc3s2)c2ccc(OC(F)F)cc2)ccc2cccnc12 (configuration not stated) | > 20 | > 20 | > 20 | > 20 | > 20 | > 20 | > 20 | > 20 | 9.22

The next lines start with results.

Row | MIC (Staphylococcus aureus) [µM] | MIC (Cryptococcus neoformans) [µM] | MIC (Escherichia coli) [µM] | MIC (Candida albicans) [µM] | MIC (Pseudomonas aeruginosa [1]) [µM] | MIC (Acinetobacter baumannii) [µM] | MIC (Pseudomonas aeruginosa [2]) [µM] | MIC (Klebsiella pneumoniae) [µM] | SMILES | CC50 (HEK293) [µM]
15 | > 20 | > 20 | > 20 | > 20 | > 20 | > 20 | > 20 | > 20 | COc1ccc2c(c1OC)C(=O)OC2C1c2c(cc3c(c2OC)OCO3)CCN1C (configuration not stated) | > 20
16 | > 20 | > 20 | > 20 | > 20 | > 20 | > 20 | > 20 | > 20 | COc1nc2ccc(Br)cc2cc1[C@@H](c1ccccc1)[C@@](O)(CCN(C)C)c1cccc2ccccc12 [BEDAQUILINE] | > 20
17 | > 20 | > 20 | > 20 | > 20 | > 20 | > 20 | > 20 | > 20 | CCOC(=O)/C=C/[C@H](C[C@@H]1CCNC1=O)NC(=O)[C@H](CC)n1cccc(NC(=O)c2cc(C)on2)c1=O | > 20
18 | > 20 | > 20 | > 20 | > 20 | > 20 | > 20 | > 20 | > 20 | C=C(C)n1c(=O)n(Cc2ccccc2C)c2ccccc21 | > 20
19 | > 20 | > 20 | > 20 | > 20 | > 20 | > 20 | > 20 | > 20 | COc1ccc(CNC(=O)C(NS(=O)(=O)c2ccc3nc(C)sc3c2)C(C)C)cc1 (configuration not stated) | > 20
20 | > 20 | > 20 | > 20 | > 20 | > 20 | > 20 | > 20 | > 20 | O=C(O)c1ccccc1Sc1ncnc2sc3c(c12)CCC3 | > 20
21 | > 20 | > 20 | > 20 | > 20 | > 20 | > 20 | > 20 | > 20 | N#CCN1C(=O)COc2cc(F)c(N3C(=O)c4ccccc4C3=O)cc21 | > 20
22 | > 20 | > 20 | > 20 | > 20 | > 20 | > 20 | > 20 | > 20 | CCOC(=O)/C=C/[C@H](C[C@@H]1CCNC1=O)NC(=O)[C@@H](CC(=O)[C@@H](NC(=O)c1cc(C)on1)C(C)C)Cc1ccc(F)cc1 | > 20
23 | > 20 | > 20 | > 20 | > 20 | > 20 | > 20 | > 20 | > 20 | Cc1cccc(CC(=O)N[C@H]2CCOC2=O)c1 | > 20
24 | > 20 | > 20 | > 20 | > 20 | > 20 | > 20 | > 20 | > 20 | Cc1onc(-c2ccccc2)c1-c1ccc(S(N)(=O)=O)cc1 [VALDECOXIB] | > 20
25 | > 20 | > 20 | > 20 | > 20 | > 20 | > 20 | > 20 | > 20 | COc1cc(NC(=O)CN2C(=O)NC(c3ccccc3)(c3ccccc3)C2=O)cc(OC)c1 | > 20
26 | > 20 | > 20 | > 20 | > 20 | > 20 | > 20 | > 20 | > 20 | CCc1nc2ccccn2c1C(=O)NCc1ccccc1 | > 20
27 | 10 | > 20 | 0.625 | > 20 | 0.312 | 20 | > 20 | 20 | CCn1cc(C(=O)O)c(=O)c2cc(F)c(N3CCNC(C)C3)c(F)c21 (configuration not stated) [LOMEFLOXACIN HYDROCHLORIDE] | > 20
28 | 20 (≈ 5.67 µg/mL) | 20 (≈ 5.67 µg/mL) | > 20 | > 20 | > 20 | > 20 | > 20 | > 20 | O=C(Nc1nnc(-c2ccccc2)o1)c1ccc(F)cc1 | > 20
